Laboratory results: patent publication US20160109459A1, “Compositions And Methods For Heparan Sulfate As A Biomarker For Transplant Rejection” (Duke University, priority 2012, published 2016)

Columns and labels:
[1] = tested on: BALB/c DCs; assay: DC maturation: surface expression of CD40 and CD80 by FACS; format: cell-based, mouse; details: 24 h; HS 100 μg/mL, Pam3CSK4 2 μg/mL
Procedure: (§1) FIG. 3A is a graph showing WT, TLR4^−/−, or MyD88^−/− BALB/c DCs (2×10^5/well) were stimulated with LPS (100 ng/mL), HS (100 μg/mL), or Pam3CSK4 (2 μg/mL), or left unstimulated (media) for 24 hours, and measured for surface expression of co-stimulatory molecules CD40 and CD80 by FACS analysis. FIGS. 3B and 3C are graphs showing WT, MyD88^−/−, and TLR4^−/− BALB/c cultured DCs were co-cultured with media alone, LPS, HS, or Pam3CSK4 as in (A) and culture supernatants were tested for IL-6 (B) and IL-12 (C) by ELISA. Data are representative of three independent experiments; *p<0.05 compared with media alone.
To investigate how activation of DCs by HS promoted the alloreactive T cell response, an as DC maturation and production of pro-inflammatory cytokines are key initial events in triggering adaptive immune responses, the ability of HS to upregulate DC expression of costimulatory molecules, CD40 and CD80, and pro-inflammatory cytokines, IL-6 and IL-12 was tested.
Antibodies and flow cytometry: Anti-CD40 (HM40-3), anti-CD80 (16-10A1), anti-Thy1.1 (OX-7), anti-Ly5.1 (A20) anti-IFN-γ (XMG1.2), rat IgG1 isotype (R3-34), and the BrdU Flow Kit (FITC-labeled) were from BD Biosciences (San Jose, Calif., USA). Intracellular IFN-γ staining was performed as previously described. (Brennan, T. V. et al. (2008) Transplantation 85:247-55). For in vivo BrdU labeling, mice were injected with 50 μg BrdU/gm i.p. 1 hour prior to analysis. Collection of flow cytometric data was acquired using a FACSCanto (BD Biosciences), and events were analyzed using FloJo software (Tree Star, Inc., Ashland, United States).

[2] = tested on: BALB/c DCs; assay: DC production of pro-inflammatory cytokines by ELISA; format: cell-based, mouse
Procedure: as §1
Lethally irradiated BALB/c recipients received either 1×10^7 B10.D2 TCD-BM only (Allo-BM), 1×10^7 B10.D2 TCD-BM and 5×10^6 B10.D2 LCs (Allo-BM+LC), or 1×10^7 BALB/c TCD-BM and 5×10^6 BALB/c LCs (Syn-BM+LC). FIG. 6A is a graph showing HS concentrations following transplantation as determined by ELISA at the indicated time points; n=2-5 samples per time point; *p<0.05 comparing Allo-BM+LC and Allo-BM at the indicated time point. FIG. 6B is a graph showing the half maximal effective concentration (EC50) of HS on DC stimulation, BALB/c DCs (2×10^5/well) following 24 hr of culture with differing concentrations of HS in triplicate and IL-6 production was tested by ELISA. Results are representative of three independent experiments.
FIG. 13 is a graph showing WT, MyD88^−/−, and TLR4^−/− BALB/c cultured DCs that were co-cultured with media alone, LPS, HS, or Pam3CSK4 and tested for TNF-α as determined by ELISA assay.
Cytokine analysis: Cell culture supernatants were obtained from DC cultures or T cell proliferation assays and assayed for IL-6, IL-12 and IFN-γ by ELISA (BD Biosciences) according to the manufacturer's standard protocols. HEK 293 supernatants were tested for human IL-8 by ELISA (BioLegend, San Diego, United States).
To determine if the in vivo concentrations of HS were sufficient to cause DC activation, the production of IL-6 by cultured DCs in response to a range of HS concentrations was tested (FIG. 6B).

[3] = target: T1, human TLR4 (Homo sapiens, UniProt O00206); assay: NF-κB dual luciferase reporter assay in HEK TLR4-MD2-CD14 cells; format: cell-based; details: HS 100 μg/mL, 6 hours, TLR4 expressing cell lines
T1 construct: expressed in transfected cells; host or cells: HEK 293 (gift from Dr. Michael Fessler, NIEHS)
Procedure: HEK cell lines stably expressing CD14 and MD2 alone (HEK MD2-CD14), or co-expressed with human TLR2 (HEK TLR2-MD2-CD14) or human TLR4 (HEK TLR4-MD2-CD14) were transfected with a plasmid encoding firefly luciferase (F) under control of the NF-κB promoter along with a plasmid expressing Renilla luciferase (R) under control of the thymidine kinase promoter as a transfection control. Cell lines were cultured for 6 hours with media alone, LPS (100 ng/mL), HS (100 μg/mL), or Pam3CSK4 (2 μg/mL). FIG. 5A is a graph showing the ratio of F/R was measured by dual luciferase reporter assay to determine NF-κB activation of lysed cells, *p<0.05 compared with media alone. FIG. 5B is a graph showing results supernatants analyzed for IL-8 production by ELISA. […]
Luciferase reporter assay: Luciferase activity was measured using the Dual-Luciferase Reporter Assay (Promega, Madison, Wis., USA) according to the manufacture's recommended protocol. Luminescence was measured using an LMax Luminometer (Molecular Devices, Sunnyvale, United States).
A heterodimer of different TLRs is required for some PAMPs. […] The ratio of luminescence produced by firefly luciferase to Renilla luciferase (F/R) was then measured in response to media alone, LPS, HS, and Pam3CSK4. The production of IL-8, which is downstream of NF-κB activation, by ELISA was also measured. […]

[4] = BALB/c DCs 2×10^5/well, 24 hr culture

T1 sequence (O00206 24-839): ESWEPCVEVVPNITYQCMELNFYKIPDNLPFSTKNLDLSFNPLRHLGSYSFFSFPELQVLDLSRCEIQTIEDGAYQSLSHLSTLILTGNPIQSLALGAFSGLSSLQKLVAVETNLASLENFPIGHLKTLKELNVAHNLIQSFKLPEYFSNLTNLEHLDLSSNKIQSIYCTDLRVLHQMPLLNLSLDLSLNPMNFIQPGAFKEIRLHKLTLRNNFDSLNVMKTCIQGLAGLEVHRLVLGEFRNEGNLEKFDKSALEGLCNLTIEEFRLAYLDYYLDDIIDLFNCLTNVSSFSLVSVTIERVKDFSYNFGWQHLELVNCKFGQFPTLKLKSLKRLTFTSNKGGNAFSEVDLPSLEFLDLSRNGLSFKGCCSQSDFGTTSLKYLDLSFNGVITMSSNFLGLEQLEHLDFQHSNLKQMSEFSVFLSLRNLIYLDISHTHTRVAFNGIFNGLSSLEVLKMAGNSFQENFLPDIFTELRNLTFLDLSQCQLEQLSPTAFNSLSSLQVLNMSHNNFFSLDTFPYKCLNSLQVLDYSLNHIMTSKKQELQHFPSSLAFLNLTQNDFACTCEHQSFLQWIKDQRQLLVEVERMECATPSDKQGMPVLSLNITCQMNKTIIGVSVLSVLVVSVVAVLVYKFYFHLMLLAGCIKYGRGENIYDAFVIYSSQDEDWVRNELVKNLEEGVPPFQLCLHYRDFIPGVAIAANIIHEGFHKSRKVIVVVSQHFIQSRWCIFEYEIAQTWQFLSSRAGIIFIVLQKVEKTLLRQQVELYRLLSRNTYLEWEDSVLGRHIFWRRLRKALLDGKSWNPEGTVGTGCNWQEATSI
T1 sequence (Q9Y6Y9 17-160 partner limits assumed): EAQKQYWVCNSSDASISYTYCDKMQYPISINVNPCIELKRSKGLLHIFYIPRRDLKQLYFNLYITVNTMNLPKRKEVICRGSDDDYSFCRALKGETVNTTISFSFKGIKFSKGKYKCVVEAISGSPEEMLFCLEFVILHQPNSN

half maximal effective concentration (EC50) on DC stimulation (IL-6 production) [2, 4]: approximately 4 μg/mL | NF-κB activation (ratio F/R) [3]: caused NF-κB activation
Substance: heparan sulfate [HS]
upregulation of CD40 and CD80 on WT DCs [1]: upregulation | concentration achieving maximal response (IL-6 production by DCs) [2, 4]: 12.5 µg/mL | production of IL-6 and IL-12 from TLR4−/− or MyD88−/− DCs ([2]; HS 100 μg/mL, 24 h): but not from TLR4^−/− or MyD88^−/− DCs | production of IL-6 and IL-12 from WT DCs ([2]; HS 100 μg/mL, 24 h, not inhibited by PMB): stimulated DCs to produce | DC expression of TNF-α ([2]; TLR4- and MyD88-dependent): up-regulate
